These are literature values, as cited in patent US6063383A, “Pharmaceutical suppository composites for fever and influenza and method of producing the composites” (priority 1999, dated 2000).

“Also recorded” adds a separate entry of the source. Like-named read-outs stand apart in the source and are kept apart here.

The subject of series [1] is heart separated from frogs, wister rats, or rabbits.
Series [2] deals with blood capillary permeability. The conditions noted are these: into the stomach.
The subject of a further series is sleeping time. Particulars: sub-threshold pento-barbital sodium.
Series [3] deals with post-synaptic GABA receptors.
The subject of a further series is pain. The conditions noted are these: oral intake or injection.
For series [4], the system named is heart failure; left ventricles.
Series [5] has as its system hemorrhagic heart failure.
The next series has as its system blood platelets. Particulars: ADP, arachidonic acids and collagen.
The test system of series [6] is TXA; prostate glandis (PGI).
Series [7] concerns essential hypertension and critical hypertension. Particulars: in vivo.
A further series deals with blood cholesterol. The conditions noted are these: in vivo.
For series [8], the system named is liver injury caused by carbon tetrachloride.
The test system of series [9] is small rats.
Series [10] has as its system small rats. Particulars: rat, in vivo.
Series [11] concerns twisting reaction of small rats caused by acetic acid. Particulars: into the stomach.
The subject of series [12] is smooth muscles of the gall bladder and the dilator in the opening of the bile duct.
The next series has as its system nephrosis. The conditions noted are these: intra-abdominal.
The test system of another series is granuloma. The conditions noted are these: for anti-granulomatous action: cotton granulomatous method; for anti-osmosis: granulationimplantation.
Series [13] has as its system small rats. This is another data set of the same source.
Setting [14] is: infusing to the stomach of small rats.

For `C[C@H](CCC(=O)O)[C@H]1CC[C@H]2[C@@H]3[C@H](O)C[C@@H]4C[C@H](O)CC[C@]4(C)[C@H]3C[C@H](O)[C@]12C` [cholic acid], the cardiac tonic effect entry in series [1] is recorded as “cardiac tonic effect”. Also, the “contracting effect on aortic arteries” value in the series with aortic arteries was “contracting effect”.

One may read the IC50 as the concentration needed to halve the response being measured. One may read the pA2 as the negative logarithm of the molar antagonist concentration that doubles the agonist concentration needed for the same response. For `COc1cc(CC2(O)C(=O)OCC2Cc2ccc(OC)c(OC)c2)ccc1O` (single isomer, unassigned) [trachelogenin], in the series on colon, the 50% inhibitory concentration (IC50) is 1100 nM and the “antagonistic action on calcium” value is recorded as “noticeable antagonistic action on calcium”. Besides, in the series with colon (high concentration of potassium), the effect on contraction result is given as “inhibitory effect on the contraction”. Besides, in the series with colon (rat, colon), the pA2 is given as 6.60. For the same compound, the ratio to verapamil result in the series with colon (versus verapamil) is “one-sixth”.

In the case of `CC(C)=C1CC[C@@H](C)CC1=O` [Pulegone], the “inhibitory rate on abdominal osmosis” value in [2] is 39.8%.

Consider `O=C1C[C@@H]2OCC=C3CN4CC[C@]56c7ccccc7N1[C@H]5[C@H]2[C@H]3C[C@H]46` [Strychnine, reference compound], for which the antagonism of pyrexia entry with hypothalamus (rat, in vivo) was “can antagonize pyrexia”.

As to `C[C@H](CCC(=O)O)[C@H]1CC[C@H]2[C@@H]3[C@H](O)C[C@@H]4C[C@H](O)CC[C@]4(C)[C@H]3C[C@H](O)[C@]12C` [calcium cholic acid], in the series with hypertension (oral, 100 mg/kg), the “blood pressure lowering effect” value was “significant and long-lasting blood pressure lowering effect”; the “duration of hypotensive effect” value is listed as “one”.

On to `CCCCCC(O)CC` (stereo not drawn) [3-octanol], for which the inflammation action entry with inflammation is given as “have inflammation action”.

In the case of `C=CC1=C(C)/C(=C/c2[nH]c(Cc3[nH]c(/C=C4\NC(=O)C(C)=C4C=C)c(C)c3CCC(=O)O)c(CCC(=O)O)c2C)NC1=O` [bilirubin], the cardiac tonic effect result in series [1] was “cardiac tonic effect”. For the same compound, the “contracting effect on aortic arteries” value in the series on aortic arteries was “weaker contracting effect”.

As usually defined, the LD50 is the dose expected to kill half of the subjects tested. Take `NCCS(=O)(=O)O` [taurine]: in the series with sleeping time, the hypnotizing action entry was “increase the hypnotizing action”. For the same compound, the electrical activities result with cerebral cortical nerves was “can inhibit both the spontaneous and induced electrical activities and produce hyperpolarization”. Further, the “inhibitory effect on the spinal cord and brain stem with strychnine” value in the series on cerebral cortical nerves (strychnine) is listed as “antagonized by strychnine”. In addition, in series [3], the “affinity for post-synaptic GABA receptors” value is recorded as “no significant affinity”. Besides, in series [3] (central nervous system), the “replacement of GABA effects” value was “cannot replace the inhibitory effect and modulating effect of GABA”. In the series on convulsion (pento-tetra-amine, cepharathin, carbon monoxide, aluminum oxide, 4-amino pyride, penicillin, oxygen, low calcium, sound, L-uric acid), the effect on convulsion result is “inhibitory effect”. In the series on convulsion (strychnine), the “latency period of convulsion” value was “can significantly extend the latency period”. For the same compound, the body temperature entry in the series with hypothalamus (injection into the hypothalamus) is “can increase the body temperature”. Moreover, the body temperature entry in the series on hypothalamus (large dosage) is “can reduce the body temperature”. Besides, in the series with heat-induced pyrogenesis (E1 (PGE1) and E2 (PGE2)), the “effect on PGE1 and PGE2 mechanism” value is given as “so such effect occurs”. Moreover, the inhibition of pyrogenesis result in the series with heat-induced pyrogenesis (endotoxin and white blood cells, injection into the cerebral ventricles) is “can inhibit the heat-induced pyrogenesis of endotoxin and white blood cells”. Besides, in the series on pain, the pain relief entry was “does not produce noticeable pain relief”. The hypotensive effect entry in the series with hypertension (essential or deoxy-cortisone acetate-induced hypertension) is “hypotensive effect”. Also, in [4] (after 1 mg/kg propranolol or diltiazem), the “output of left ventricles” value is “can improve the output of left ventricles”. Also, in series [4] (long-term oral), the life expectancy result is “extends the life expectancy of rabbits”. In addition, the “prevention of heart failure” value in series [4] (long-term oral, incomplete opening and closing of aortic valves) is on record as “can prevent the accelerated hemorrhagic heart failure”. In series [4] (rabbit, in vivo), the “normal rate and final diastolic pressure of left ventricles” value was “does not affect the normal rate of rabbits and the final diastolic pressure of left ventricles”; the “output and systolic pressure of the left ventricles” value was “significantly increase the output and systolic pressure of the left ventricles”. The heart-failure mortality rate result in series [4] (treatment group) is on record as “significantly reduces with a lower heart pulse”. Also, the treatment effect result in [5] (6 g daily, four weeks) was “noticeable treatment effect”. For the same compound, the “action and metabolism of cardiac tonic” value in [5] (catecholamines and digitalis) is “does not affect the action and metabolism of cardiac tonic”. In addition, the “agglomeration of blood platelets” value with blood platelets is “dosage-dependence relationship; also recorded: inhibitory action on the agglomeration of blood platelets”. Moreover, in [6], the “formation of TXA by arachidonic acids” value is reported as “no effect on the formation of TXA by arachidonic acids” and the “formation of TXA by collagen” value is recorded as “can inhibit the formation of TXA by collagen”. Also, the “formation of PGI” value in the series with TXA is on record as “no noticeable effect”. The formation of thrombi result in the series with formation of thrombi is on record as “noticeable inhibition on the formation of thrombi”. For the same compound, in the series with myocardia, the “effect on cell membrane” value is “stabilizing effect on the cell membrane”; the formation of glutathione entry is reported as “increase the formation of glutathione”; the “myocardial blood deficiency and damage” value is “can significantly inhibit myocardial blood deficiency and damage”; the “myocardial injury by hyperpolarization of calcium” value is reported as “antagonize the myocardial injury”. The oxygen free radicals result in the series on myocardia is “reduce the formation of oxygen free radicals; also recorded: increases the excretion of oxygen free radicals”. In addition, in the series with cardiac arrhythmias, the “effect on Ca^2+ in the myocardia” value is “biphasic moderation” and the “prevention of cardiac arrhythmias” value was “can prevent cardiac arrhythmias”. For the same compound, in the series with cardiac arrhythmias (used together with quinidina, small rats), the anti-arrhythmic effect result was “better anti-arrhythmic effect”. Further, the “effects in treating hypertension” value in series [7] is given as “satisfactory”. In addition, in the series on blood cholesterol, the atherosclerosis entry is listed as “prevent atherosclerosis”, the blood cholesterol entry is recorded as “reduce blood cholesterol” and the high-density lipoproteins entry is on record as “increase high-density lipoproteins”. In series [8] (in vivo), the “protection for liver injury” value was “protection for the liver injury” and the “rise of ALT” value is “inhibits the rise of ALT”. Further, the “repairing of liver cells” value in series [8] (pathological sectioning) was “can promote the repairing of liver cells and the prevention of lipohepatitis”. Further, the LD50 in the series with small rats [9] (intravenous) was 330 mg/kg. Besides, the pathological changes result in the series with small rats [10] was “no pathological changes are found”.

For the compound `CC1CCC(C(C)C)C(O)C1` (stereo not drawn) [Methol], the “inhibitory rate on twisting reaction” value in series [11] is recorded as 41.3%.

As for deoxy-chloretic acid, the “effect on bile duct / excretion of bile” value in series [12] is “can relax the dilators of the bile duct”. Also, the LD50 in the series with small rats [9] (setting [14]) is 1060 mg/kg; with small rats [9] (intravenous), 150 mg/kg.

With `CC(C)NCC(O)COc1cccc2ccccc12` (stereo not drawn) [propranolol, reference compound], the “output of left ventricles” value in series [4] (1 mg/kg) is recorded as “the output of the left ventricles reduces”.

As to `COc1ccc([C@@H]2Sc3ccccc3N(CCN(C)C)C(=O)[C@@H]2OC(C)=O)cc1` [diltiazem, reference compound], the “output of left ventricles” value in series [4] (1 mg/kg) is on record as “the output of the left ventricles reduces”.

As for chloretic acid, the LD50 in the series with small rats [9] (setting [14]) was 1520 mg/kg.

As for `COc1cc(C[C@H]2C(=O)OC[C@@H]2Cc2ccc(OC)c(OC)c2)ccc1O` [arctigenin], in the series on nephrosis, the “excretion of proteins in urine” value is listed as “can inhibit the increase in the excretion of proteins in urine” and the serum biochemical index result was “improve the serum biochemical index”.

bupleurum saponin-a: in the series on granuloma, the anti-granulomatous action entry was “anti-granulomatous action” and the anti-osmosis result is reported as “anti-osmosis”. In the series on small rats [13] (mounting experiments, conditional aversion), the inhibition on over-activity entry is listed as “noticeable inhibition on the over-activity”. Further, the tranquilizing effect result in the series with small rats [13] (rat, in vivo) was “significant tranquilizing effect”. In addition, the “coughing-relieving action, dose relation” value in the series on coughing (intra-abdominal, 100~200 mg/kg, wister rats, 200 mg/kg) is given as “most noticeable coughing-relieving action; also recorded: related to its dosage”. The “action of relieving coughing” value with coughing (rat, in vivo) was “stronger action of relieving coughing”.

Regarding bupleurum saponin-d, in the series on granuloma, the anti-granulomatous action result is listed as “anti-granulomatous action” and the anti-osmosis result is “anti-osmosis”.

For `C=C1CCC2CC1C2(C)C` (stereo not drawn) [β-pipene], the inflammation action result in the series on inflammation is listed as “have inflammation action”.
